For 3 compounds, Activity results are on record in ChEMBL document CHEMBL2429821, “A Casein kinase 1/Checkpoint kinase 1 pyrazolo-pyridine protein kinase inhibitor as novel activator of the p53 pathway” (Bioorg Med Chem Lett, 2013).

The target of test [1] is T1, MAP kinase-activated protein kinase 5 (Homo sapiens) (UniProt Q8IW41).
T1 sequence (whole entry): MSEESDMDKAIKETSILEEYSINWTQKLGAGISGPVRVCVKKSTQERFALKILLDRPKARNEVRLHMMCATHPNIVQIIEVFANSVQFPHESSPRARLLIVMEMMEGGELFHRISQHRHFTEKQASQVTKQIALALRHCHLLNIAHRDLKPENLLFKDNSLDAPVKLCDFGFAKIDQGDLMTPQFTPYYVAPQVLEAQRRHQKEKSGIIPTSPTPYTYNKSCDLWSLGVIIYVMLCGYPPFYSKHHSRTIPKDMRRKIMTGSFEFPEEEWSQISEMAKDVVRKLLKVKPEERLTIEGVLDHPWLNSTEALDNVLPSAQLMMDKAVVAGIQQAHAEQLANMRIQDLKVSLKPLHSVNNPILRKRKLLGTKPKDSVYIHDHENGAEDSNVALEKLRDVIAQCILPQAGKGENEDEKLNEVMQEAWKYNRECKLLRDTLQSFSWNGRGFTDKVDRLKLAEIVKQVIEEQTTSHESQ
The experiment in a line: Inhibition of human PRAK assessed as residual activity at 1 uM relative to control.

Test [2] deals with T2, Fibroblast growth factor receptor 1 (Homo sapiens, UniProt P11362). Briefly: Inhibition of human FGFR1 assessed as residual activity at 1 uM relative to control.
Test [3] concerns the target Ephrin type-A receptor 2 (Homo sapiens) (UniProt P29317). The experiment in a line: Inhibition of human EPHA2 assessed as residual activity at 1 uM relative to control.
In test [4] the target is SRSF protein kinase 1 (Homo sapiens) (UniProt Q96SB4). The experiment in a line: Inhibition of human SRPK1 assessed as residual activity at 10 uM relative to control.
Test [5] addresses Rho-associated protein kinase 2 (Rattus norvegicus) (UniProt Q62868). Briefly: Inhibition of rat ROCK2 assessed as residual activity at 10 uM relative to control.
Test [6] concerns the target Protein kinase C alpha type (Homo sapiens) (UniProt P17252). The experiment in a line: Inhibition of human PKCalpha assessed as residual activity at 10 uM relative to control.
For test [7], the target named is RAC-alpha serine/threonine-protein kinase (Homo sapiens) (UniProt P31749). The experiment in a line: Inhibition of human PKBalpha assessed as residual activity at 10 uM relative to control.
Test [8] deals with Serine/threonine-protein kinase Nek6 (Homo sapiens) (UniProt Q9HC98). Briefly: Inhibition of human NEK6 assessed as residual activity at 10 uM relative to control.
The target in test [9] is Insulin receptor (Homo sapiens) (UniProt P06213). The experiment in a line: Inhibition of human IR assessed as residual activity at 10 uM relative to control.
In test [10] the target is T2, Fibroblast growth factor receptor 1. Briefly: Inhibition of human FGFR1 assessed as residual activity at 10 uM relative to control.
The target of test [11] is T3, Serine/threonine-protein kinase Sgk1 (Homo sapiens) (UniProt O00141).
T3 sequence (whole entry): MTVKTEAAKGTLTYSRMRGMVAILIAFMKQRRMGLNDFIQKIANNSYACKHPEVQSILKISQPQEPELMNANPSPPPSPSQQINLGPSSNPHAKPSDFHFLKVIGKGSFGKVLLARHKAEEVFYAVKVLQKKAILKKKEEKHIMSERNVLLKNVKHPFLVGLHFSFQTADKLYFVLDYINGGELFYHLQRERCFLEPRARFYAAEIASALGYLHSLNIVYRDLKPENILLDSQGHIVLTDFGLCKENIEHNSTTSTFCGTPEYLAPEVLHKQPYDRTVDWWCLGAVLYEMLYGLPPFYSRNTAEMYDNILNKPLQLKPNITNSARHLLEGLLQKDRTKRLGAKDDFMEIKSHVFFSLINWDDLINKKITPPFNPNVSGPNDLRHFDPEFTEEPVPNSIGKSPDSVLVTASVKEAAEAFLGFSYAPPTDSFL
Briefly: Inhibition of human SGK1 assessed as residual activity at 1 uM relative to control.

For another test, the species on record is Oryctolagus cuniculus. The experiment in a line: Inhibition of rabbit MKK1 assessed as residual activity at 1 uM relative to control.
For test [12], the target named is T4, Inhibitor of nuclear factor kappa-B kinase subunit beta (Homo sapiens) (UniProt O14920).
T4 sequence (whole entry): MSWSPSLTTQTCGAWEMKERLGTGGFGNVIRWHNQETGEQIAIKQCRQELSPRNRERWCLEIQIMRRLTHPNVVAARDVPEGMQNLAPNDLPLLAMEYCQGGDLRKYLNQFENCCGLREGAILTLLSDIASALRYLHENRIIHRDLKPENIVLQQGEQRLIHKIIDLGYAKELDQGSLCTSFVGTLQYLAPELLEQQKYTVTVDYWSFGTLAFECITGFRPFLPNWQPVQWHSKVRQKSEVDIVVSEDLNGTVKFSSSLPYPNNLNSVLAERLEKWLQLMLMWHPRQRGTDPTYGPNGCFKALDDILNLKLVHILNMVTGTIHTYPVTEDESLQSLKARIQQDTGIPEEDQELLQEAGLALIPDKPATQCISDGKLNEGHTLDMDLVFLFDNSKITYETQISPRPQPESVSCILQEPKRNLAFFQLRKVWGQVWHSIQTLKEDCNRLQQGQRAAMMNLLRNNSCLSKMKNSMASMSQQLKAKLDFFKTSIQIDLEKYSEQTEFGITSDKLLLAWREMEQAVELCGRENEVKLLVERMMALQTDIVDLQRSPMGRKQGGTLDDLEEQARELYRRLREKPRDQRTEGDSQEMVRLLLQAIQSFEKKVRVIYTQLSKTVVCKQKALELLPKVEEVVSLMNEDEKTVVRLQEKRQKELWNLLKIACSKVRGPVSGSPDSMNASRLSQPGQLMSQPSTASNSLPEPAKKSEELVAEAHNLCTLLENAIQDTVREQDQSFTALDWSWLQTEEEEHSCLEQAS
The experiment in a line: Inhibition of human IKKbeta assessed as residual activity at 1 uM relative to control.

Test [13] deals with Dual specificity tyrosine-phosphorylation-regulated kinase 1A (Rattus norvegicus) (UniProt Q63470). The experiment in a line: Inhibition of rat DYRK1alpha assessed as residual activity at 1 uM relative to control.
Test [14] has as its target Tyrosine-protein kinase CSK (Homo sapiens) (UniProt P41240). The experiment in a line: Inhibition of human CSK assessed as residual activity at 1 uM relative to control.
The target in test [15] is Tyrosine-protein kinase BTK (Homo sapiens) (UniProt Q06187). The experiment in a line: Inhibition of human BTK assessed as residual activity at 1 uM relative to control.
Test [16] concerns the target Insulin receptor-related protein (Homo sapiens) (UniProt P14616). Briefly: Inhibition of human IRR assessed as residual activity at 10 uM relative to control.
Test [17] addresses Insulin-like growth factor 1 receptor (Homo sapiens) (UniProt P08069). The experiment in a line: Inhibition of human IGF-1R assessed as residual activity at 10 uM relative to control.
The target in test [18] is Dual specificity tyrosine-phosphorylation-regulated kinase 1A (Rattus norvegicus) (UniProt Q63470). The experiment in a line: Inhibition of rat DYRK1alpha assessed as residual activity at 10 uM relative to control.
Test [19] concerns the target Cyclin-dependent kinase 2 (Homo sapiens) (UniProt P24941). The experiment in a line: Inhibition of human CDK2 assessed as residual activity at 10 uM relative to control.

Insulin receptor-related protein (Homo sapiens), sequence (P14616 27-742 limits assumed): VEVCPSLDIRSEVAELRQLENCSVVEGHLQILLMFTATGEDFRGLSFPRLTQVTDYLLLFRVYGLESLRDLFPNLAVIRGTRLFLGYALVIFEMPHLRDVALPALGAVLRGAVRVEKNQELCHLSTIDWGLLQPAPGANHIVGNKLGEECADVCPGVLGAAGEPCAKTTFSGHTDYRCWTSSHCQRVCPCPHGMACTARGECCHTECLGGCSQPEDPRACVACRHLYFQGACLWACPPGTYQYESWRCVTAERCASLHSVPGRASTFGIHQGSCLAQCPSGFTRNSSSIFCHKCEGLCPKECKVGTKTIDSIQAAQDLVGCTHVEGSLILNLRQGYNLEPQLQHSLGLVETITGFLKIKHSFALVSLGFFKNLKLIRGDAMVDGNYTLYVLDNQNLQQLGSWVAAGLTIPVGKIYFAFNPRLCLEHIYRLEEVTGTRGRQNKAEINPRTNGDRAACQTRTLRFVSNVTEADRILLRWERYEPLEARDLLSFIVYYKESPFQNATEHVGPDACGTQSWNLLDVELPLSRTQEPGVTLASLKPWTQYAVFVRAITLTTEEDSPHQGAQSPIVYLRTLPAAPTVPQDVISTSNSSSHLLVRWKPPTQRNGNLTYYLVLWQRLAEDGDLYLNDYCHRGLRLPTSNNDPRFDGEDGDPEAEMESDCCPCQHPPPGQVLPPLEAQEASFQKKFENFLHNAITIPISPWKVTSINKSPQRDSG
Insulin receptor-related protein (Homo sapiens), sequence (P14616 747-1297 limits assumed): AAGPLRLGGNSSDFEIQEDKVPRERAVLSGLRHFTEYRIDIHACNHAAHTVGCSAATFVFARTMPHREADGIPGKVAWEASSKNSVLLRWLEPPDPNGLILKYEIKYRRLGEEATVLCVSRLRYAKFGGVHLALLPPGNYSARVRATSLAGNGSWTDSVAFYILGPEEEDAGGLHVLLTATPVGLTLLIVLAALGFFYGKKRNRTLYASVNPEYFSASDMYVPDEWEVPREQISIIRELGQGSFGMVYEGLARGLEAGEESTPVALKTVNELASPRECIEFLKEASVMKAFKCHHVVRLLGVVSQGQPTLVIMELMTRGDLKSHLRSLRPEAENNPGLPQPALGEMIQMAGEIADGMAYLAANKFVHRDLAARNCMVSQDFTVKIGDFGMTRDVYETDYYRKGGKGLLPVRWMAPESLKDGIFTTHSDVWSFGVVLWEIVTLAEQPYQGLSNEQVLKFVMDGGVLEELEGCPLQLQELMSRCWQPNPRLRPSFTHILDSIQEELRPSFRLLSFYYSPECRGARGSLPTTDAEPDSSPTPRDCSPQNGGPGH
RAC-alpha serine/threonine-protein kinase (Homo sapiens), sequence (P31749 whole entry): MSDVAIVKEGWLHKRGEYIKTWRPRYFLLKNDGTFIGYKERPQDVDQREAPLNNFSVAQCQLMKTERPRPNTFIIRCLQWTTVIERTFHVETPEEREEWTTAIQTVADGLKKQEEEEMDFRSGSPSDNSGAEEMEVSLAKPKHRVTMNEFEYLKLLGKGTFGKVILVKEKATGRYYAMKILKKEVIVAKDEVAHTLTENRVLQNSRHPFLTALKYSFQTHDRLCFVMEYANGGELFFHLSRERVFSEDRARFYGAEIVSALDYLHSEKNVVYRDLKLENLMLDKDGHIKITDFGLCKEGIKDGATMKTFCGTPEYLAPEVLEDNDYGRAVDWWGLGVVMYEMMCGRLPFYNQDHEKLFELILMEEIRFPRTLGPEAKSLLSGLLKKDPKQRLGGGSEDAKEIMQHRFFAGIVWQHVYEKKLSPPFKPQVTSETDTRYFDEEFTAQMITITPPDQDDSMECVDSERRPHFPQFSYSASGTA
T2 sequence (P11362 22-822 limits assumed): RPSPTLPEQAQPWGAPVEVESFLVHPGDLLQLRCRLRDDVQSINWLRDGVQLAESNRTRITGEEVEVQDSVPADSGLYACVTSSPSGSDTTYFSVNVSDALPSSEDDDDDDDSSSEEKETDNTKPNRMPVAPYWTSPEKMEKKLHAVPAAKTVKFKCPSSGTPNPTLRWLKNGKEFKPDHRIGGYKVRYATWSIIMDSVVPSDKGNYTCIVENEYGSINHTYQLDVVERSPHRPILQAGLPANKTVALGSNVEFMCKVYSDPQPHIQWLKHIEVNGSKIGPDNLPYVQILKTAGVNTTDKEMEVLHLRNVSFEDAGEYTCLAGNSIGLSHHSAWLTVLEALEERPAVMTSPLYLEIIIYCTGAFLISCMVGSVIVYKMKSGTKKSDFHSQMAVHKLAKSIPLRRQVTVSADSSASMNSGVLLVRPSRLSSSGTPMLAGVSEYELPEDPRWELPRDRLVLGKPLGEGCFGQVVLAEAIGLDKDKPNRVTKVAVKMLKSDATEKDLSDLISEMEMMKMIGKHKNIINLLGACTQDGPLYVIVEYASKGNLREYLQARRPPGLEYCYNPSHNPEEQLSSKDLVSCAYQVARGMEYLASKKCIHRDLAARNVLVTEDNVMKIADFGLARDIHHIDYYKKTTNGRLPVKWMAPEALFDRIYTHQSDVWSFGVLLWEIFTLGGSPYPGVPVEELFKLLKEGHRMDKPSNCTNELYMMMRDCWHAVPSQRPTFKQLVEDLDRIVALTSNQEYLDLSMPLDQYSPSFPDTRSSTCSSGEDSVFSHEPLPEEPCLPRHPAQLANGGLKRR
Tyrosine-protein kinase CSK (Homo sapiens), sequence (P41240 2-450 limits assumed): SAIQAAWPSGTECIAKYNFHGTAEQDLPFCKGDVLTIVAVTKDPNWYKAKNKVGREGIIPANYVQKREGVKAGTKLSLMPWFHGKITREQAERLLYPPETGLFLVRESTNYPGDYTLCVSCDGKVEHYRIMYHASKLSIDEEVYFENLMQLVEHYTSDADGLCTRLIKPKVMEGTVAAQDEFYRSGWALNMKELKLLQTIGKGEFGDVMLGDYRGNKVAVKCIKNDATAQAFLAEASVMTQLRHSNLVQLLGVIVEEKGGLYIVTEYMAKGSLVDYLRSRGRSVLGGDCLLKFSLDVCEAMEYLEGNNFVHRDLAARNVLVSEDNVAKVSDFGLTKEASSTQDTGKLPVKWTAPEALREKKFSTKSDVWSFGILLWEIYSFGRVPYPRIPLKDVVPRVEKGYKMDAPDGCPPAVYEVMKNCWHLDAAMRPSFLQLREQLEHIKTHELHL
Insulin-like growth factor 1 receptor (Homo sapiens), sequence (P08069 31-736 limits assumed): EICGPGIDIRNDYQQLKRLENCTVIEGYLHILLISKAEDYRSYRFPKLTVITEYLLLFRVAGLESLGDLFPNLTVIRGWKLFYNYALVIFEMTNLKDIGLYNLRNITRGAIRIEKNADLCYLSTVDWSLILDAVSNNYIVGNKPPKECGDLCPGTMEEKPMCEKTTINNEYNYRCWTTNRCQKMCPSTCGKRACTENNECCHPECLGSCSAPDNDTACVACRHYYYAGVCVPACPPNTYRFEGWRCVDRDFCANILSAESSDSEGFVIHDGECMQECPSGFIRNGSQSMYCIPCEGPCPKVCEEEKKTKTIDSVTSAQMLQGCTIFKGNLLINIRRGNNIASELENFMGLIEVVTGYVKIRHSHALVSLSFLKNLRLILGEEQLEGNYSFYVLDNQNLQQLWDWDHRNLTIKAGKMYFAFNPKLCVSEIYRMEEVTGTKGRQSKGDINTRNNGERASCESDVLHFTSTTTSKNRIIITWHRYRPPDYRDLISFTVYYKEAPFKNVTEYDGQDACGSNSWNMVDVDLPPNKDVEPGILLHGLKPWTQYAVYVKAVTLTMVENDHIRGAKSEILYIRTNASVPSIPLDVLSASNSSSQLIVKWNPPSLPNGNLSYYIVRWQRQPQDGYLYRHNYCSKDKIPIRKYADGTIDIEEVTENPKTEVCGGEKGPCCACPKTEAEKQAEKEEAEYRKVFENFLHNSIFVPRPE
Insulin-like growth factor 1 receptor (Homo sapiens), sequence (P08069 741-1367 limits assumed): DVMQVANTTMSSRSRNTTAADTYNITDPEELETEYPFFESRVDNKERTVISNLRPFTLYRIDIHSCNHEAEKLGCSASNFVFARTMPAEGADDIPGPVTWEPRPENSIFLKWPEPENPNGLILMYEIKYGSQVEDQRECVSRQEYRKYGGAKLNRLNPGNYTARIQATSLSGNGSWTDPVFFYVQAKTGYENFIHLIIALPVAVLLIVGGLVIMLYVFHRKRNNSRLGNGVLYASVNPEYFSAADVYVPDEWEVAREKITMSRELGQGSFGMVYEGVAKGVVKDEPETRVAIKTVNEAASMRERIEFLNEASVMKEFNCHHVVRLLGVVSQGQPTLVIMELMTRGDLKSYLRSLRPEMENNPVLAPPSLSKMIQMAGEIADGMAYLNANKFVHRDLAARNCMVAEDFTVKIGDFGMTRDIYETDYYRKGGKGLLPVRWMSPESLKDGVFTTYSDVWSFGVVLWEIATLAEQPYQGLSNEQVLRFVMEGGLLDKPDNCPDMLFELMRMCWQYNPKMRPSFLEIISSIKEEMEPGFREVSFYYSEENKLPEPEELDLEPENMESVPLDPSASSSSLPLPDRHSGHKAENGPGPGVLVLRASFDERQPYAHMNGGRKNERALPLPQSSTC

Consider `CC(=O)Nc1nccc(-c2c(-c3ccccc3)noc2C)n1`, for which the Activity in test [1] is 82.4%; in [2], 99.8%; in test [3], 91.2%; in test [4] it was 91.3%; in test [5], 92.3%; in [6] it was 99.9%. Also, the Activity in test [7] worked out at 115%; in test [8] it was 78.8%; in [9], 100%; in test [10], 99.6%; in test [11], 57.5%; in the test filed under Oryctolagus cuniculus, 95.1%. Also, the Activity is 44.4% in test [12]; 91.9% in test [13]; 93.4% in [14]; 103% in test [15]; 81.4% in [16]; 92.5% in test [17]. The Activity in [18] was 102%; in test [19], 104%.
`CCCC(=O)Nc1n[nH]c2ncc(-c3cccnc3)cc12`: the Activity came out at 82% in test [1]; 92% in test [2]; 86% in test [3]; 91% in test [4]; 111% in test [5]; 81% in test [6]. In addition, the Activity in test [7] stood at 91%; in test [8], 90%; in test [9], 101%; in [10], 68%; in test [11], 108%; in the test listed under Oryctolagus cuniculus it was 90%. For the same compound, the Activity in test [12] came to 70%; in test [13], 5%; in [14], 91%; in test [15], 85%; in test [16], 58%; in test [17], 92%. The Activity worked out at 2% in test [18] and 5% in test [19].
In the case of `CC(=O)Nc1cccc(-c2cnc3[nH]nc(C)c3c2)c1`, the Activity in [1] was 94.5%; in [2], 107%; in test [3], 101%; in test [4], 89%; in [5], 58.7%; in test [6] it was 104%. Also, the Activity in test [7] is 51.1%; in test [8] it was 94.3%; in [9], 94.9%; in [10], 54.6%; in [11] it was 105%; in the test listed under Oryctolagus cuniculus it was 75.7%. Besides, the Activity in test [12] worked out at 97%; in test [13], 76.2%; in test [14], 95.3%; in [15], 93.2%; in test [16], 48.8%; in test [17], 12.5%. Besides, the Activity in test [18] turned out to be 39.9%; in [19], 40.3%.
